This is an account of results in the supplement of paper PMC11451515.

Structures are written as SMILES.

Common to all, as to assay: AUC of viability dose-response curve (% viability x log10 dose units); higher = less sensitive
Common to all, as to conditions: 48 h

The test system of one experiment is P12-Ichikawa. The gist of the method: (§1)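 Viability of medium-adapted leukemia cells was measured by CellTiter-Glo One luminescence after 48 h at 37°C with library compounds in DMSO. Doses were 11 threefold steps from 47 μM to 0.79 nM, in 1536-well plates at 500 or 1000 cells/well. Signals were normalised per plate to DMSO and cell-free wells and fitted with a four-parameter log-logistic model on log10 dose. Area under the curve was integrated by trapezoidal rule, with curves exceeding full viability scaled and failed quality-control curves removed.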

The next experiment has as its system SEM cells. The procedure, abridged:
as §1

Another experiment has as its system NOMO1. The procedure, abridged:
as §1

[1] abbreviates: RPMI 5 mM glucose + 10% dialyzed FBS.

Consider `Cc1ccc2nc(NCCN)c3ncc(C)n3c2c1`, for which the “AUC of viability dose-response curve” value amounted to 458 in the experiment on P12-Ichikawa (HPLM + 10% dialyzed FBS); 455 in the experiment with P12-Ichikawa (RPMI 5 mM glucose + 10% FBS); 460 with P12-Ichikawa (setting [1]); 413 in the experiment on SEM cells (HPLM + 10% dialyzed FBS); 440 in the experiment with SEM cells (RPMI 5 mM glucose + 10% FBS); 430 in the experiment on SEM cells (setting [1]). The “AUC of viability dose-response curve” value was found to be 446 in the experiment with NOMO1 (HPLM + 10% dialyzed FBS), 422 in the experiment with NOMO1 (RPMI 5 mM glucose + 10% FBS) and 437 with NOMO1 (setting [1]).
`Nc1n[nH]c2nnc(-c3c(-c4ccccc4)nn4ccccc34)cc12`: the “AUC of viability dose-response curve” value stood at 404 in the experiment with P12-Ichikawa (HPLM + 10% dialyzed FBS); 403 in the experiment with P12-Ichikawa (RPMI 5 mM glucose + 10% FBS); 429 with P12-Ichikawa (setting [1]); 446 in the experiment on SEM cells (HPLM + 10% dialyzed FBS); 449 in the experiment on SEM cells (RPMI 5 mM glucose + 10% FBS); 455 in the experiment with SEM cells (setting [1]). Besides, the “AUC of viability dose-response curve” value is 378 with NOMO1 (HPLM + 10% dialyzed FBS), 354 in the experiment with NOMO1 (RPMI 5 mM glucose + 10% FBS) and 379 in the experiment with NOMO1 (setting [1]).
On to `CN(C)CCCC1(c2ccc(F)cc2)OCc2cc(C#N)ccc21` (stereo unspecified), for which the “AUC of viability dose-response curve” value in the experiment on P12-Ichikawa (HPLM + 10% dialyzed FBS) was found to be 433; in the experiment on P12-Ichikawa (RPMI 5 mM glucose + 10% FBS), 415; with P12-Ichikawa (setting [1]), 425; with SEM cells (HPLM + 10% dialyzed FBS), 447; in the experiment with SEM cells (RPMI 5 mM glucose + 10% FBS), 426; in the experiment with SEM cells (setting [1]), 432. The “AUC of viability dose-response curve” value with NOMO1 (HPLM + 10% dialyzed FBS) is 425; with NOMO1 (RPMI 5 mM glucose + 10% FBS) it was 431; in the experiment on NOMO1 (setting [1]), 392.
For `CC(=O)OC[C@@H]1O[C@H]([C@H](OC(C)=O)[C@@H]1OC(C)=O)N2\C=C/C(=O)NC2=O`, the “AUC of viability dose-response curve” value in the experiment on P12-Ichikawa (HPLM + 10% dialyzed FBS) turned out to be 461; in the experiment with P12-Ichikawa (RPMI 5 mM glucose + 10% FBS), 444; with P12-Ichikawa (setting [1]), 457; with SEM cells (HPLM + 10% dialyzed FBS), 448; in the experiment on SEM cells (RPMI 5 mM glucose + 10% FBS), 462; with SEM cells (setting [1]) it was 456. The “AUC of viability dose-response curve” value was 429 with NOMO1 (HPLM + 10% dialyzed FBS), 440 in the experiment with NOMO1 (RPMI 5 mM glucose + 10% FBS) and 443 with NOMO1 (setting [1]).
Regarding `O=C(O)c1ccc(O)c2ncc(N3CCOCC3)cc12`, the “AUC of viability dose-response curve” value with P12-Ichikawa (HPLM + 10% dialyzed FBS) came out at 452; in the experiment on P12-Ichikawa (RPMI 5 mM glucose + 10% FBS), 431; in the experiment on P12-Ichikawa (setting [1]), 435; in the experiment on SEM cells (HPLM + 10% dialyzed FBS), 453; in the experiment on SEM cells (RPMI 5 mM glucose + 10% FBS), 424; with SEM cells (setting [1]), 393. In addition, the “AUC of viability dose-response curve” value with NOMO1 (HPLM + 10% dialyzed FBS) was determined as 447; in the experiment on NOMO1 (RPMI 5 mM glucose + 10% FBS), 417; in the experiment with NOMO1 (setting [1]), 454.
On to `C[C@H](NC(=O)Cc1cc(F)cc(F)c1)C(=O)N[C@H](C(=O)OC(C)(C)C)c1ccccc1`, for which the “AUC of viability dose-response curve” value in the experiment on P12-Ichikawa (HPLM + 10% dialyzed FBS) came to 432; in the experiment on P12-Ichikawa (RPMI 5 mM glucose + 10% FBS), 428; in the experiment on P12-Ichikawa (setting [1]) it was 390; in the experiment with SEM cells (HPLM + 10% dialyzed FBS) it was 418; with SEM cells (RPMI 5 mM glucose + 10% FBS), 456; in the experiment with SEM cells (setting [1]), 415. The results for the “AUC of viability dose-response curve” value with NOMO1 (HPLM + 10% dialyzed FBS), in the experiment with NOMO1 (RPMI 5 mM glucose + 10% FBS) and with NOMO1 (setting [1]) were 448, 397 and 432, respectively.
`Cc1ccc(C(=O)Nc2cccc(C(F)(F)F)c2)cc1Nc1nc(-c2cccnc2)nc2c1cnn2C`: the “AUC of viability dose-response curve” value is 421 in the experiment with P12-Ichikawa (HPLM + 10% dialyzed FBS); 393 with P12-Ichikawa (RPMI 5 mM glucose + 10% FBS); 416 in the experiment with P12-Ichikawa (setting [1]); 362 with SEM cells (HPLM + 10% dialyzed FBS); 411 with SEM cells (RPMI 5 mM glucose + 10% FBS); 407 in the experiment with SEM cells (setting [1]). For the same compound, the figures for the “AUC of viability dose-response curve” value in the experiment on NOMO1 (HPLM + 10% dialyzed FBS), in the experiment with NOMO1 (RPMI 5 mM glucose + 10% FBS) and with NOMO1 (setting [1]) were 392, 396 and 409, respectively.
In the case of `Cc1ccc(Nc2cc(-c3cccc(N4C(=O)c5ccccc5C4=O)c3)ncn2)cc1N[S+](C)(=O)[O-]`, the “AUC of viability dose-response curve” value in the experiment on P12-Ichikawa (HPLM + 10% dialyzed FBS) is 466; with P12-Ichikawa (RPMI 5 mM glucose + 10% FBS) it was 465; in the experiment on P12-Ichikawa (setting [1]), 474; in the experiment on SEM cells (HPLM + 10% dialyzed FBS), 468; in the experiment on SEM cells (RPMI 5 mM glucose + 10% FBS) it was 463; with SEM cells (setting [1]), 468. The “AUC of viability dose-response curve” value with NOMO1 (HPLM + 10% dialyzed FBS) is 461; in the experiment with NOMO1 (RPMI 5 mM glucose + 10% FBS) it was 473; in the experiment on NOMO1 (setting [1]) it was 469.
Consider `CC1(C)SCCN([S+](=O)([O-])c2ccc(OCC#CCO)cc2)[C@H]1C(=O)NO`, for which the “AUC of viability dose-response curve” value turned out to be 456 in the experiment with P12-Ichikawa (HPLM + 10% dialyzed FBS); 454 with P12-Ichikawa (RPMI 5 mM glucose + 10% FBS); 438 with P12-Ichikawa (setting [1]); 449 in the experiment with SEM cells (HPLM + 10% dialyzed FBS); 413 in the experiment on SEM cells (RPMI 5 mM glucose + 10% FBS); 439 in the experiment with SEM cells (setting [1]). The “AUC of viability dose-response curve” value came to 462 in the experiment with NOMO1 (HPLM + 10% dialyzed FBS), 437 in the experiment on NOMO1 (RPMI 5 mM glucose + 10% FBS) and 450 with NOMO1 (setting [1]).
For `Cc1ccc([C@@H]2O[C@H](CO)[C@@H](O)[C@H](O)[C@H]2O)cc1Cc1ccc(-c2ccc(F)cc2)s1`, the “AUC of viability dose-response curve” value in the experiment on P12-Ichikawa (HPLM + 10% dialyzed FBS) is 465; in the experiment with P12-Ichikawa (RPMI 5 mM glucose + 10% FBS) it was 467; with P12-Ichikawa (setting [1]), 465; in the experiment on SEM cells (HPLM + 10% dialyzed FBS), 475; with SEM cells (RPMI 5 mM glucose + 10% FBS), 467; in the experiment with SEM cells (setting [1]), 468. For the same compound, the “AUC of viability dose-response curve” value with NOMO1 (HPLM + 10% dialyzed FBS) stood at 467; in the experiment with NOMO1 (RPMI 5 mM glucose + 10% FBS), 468; in the experiment with NOMO1 (setting [1]), 472.
Turning to `COCCn1c2c([n+](Cc3cnccn3)c1C)C(=O)c1ccccc1C2=O`, the “AUC of viability dose-response curve” value in the experiment on P12-Ichikawa (HPLM + 10% dialyzed FBS) worked out at 251; in the experiment on P12-Ichikawa (RPMI 5 mM glucose + 10% FBS), 247; with P12-Ichikawa (setting [1]) it was 244; in the experiment on SEM cells (HPLM + 10% dialyzed FBS), 161; with SEM cells (RPMI 5 mM glucose + 10% FBS), 209; with SEM cells (setting [1]), 189. Besides, the “AUC of viability dose-response curve” value amounted to 194 in the experiment on NOMO1 (HPLM + 10% dialyzed FBS), 232 in the experiment on NOMO1 (RPMI 5 mM glucose + 10% FBS) and 223 in the experiment on NOMO1 (setting [1]).
For the compound `C[C@@H]1CC[C@@]2(CC[C@]3(C)\C(=C/C[C@@H]4[C@@]5(C)CC[C@H](O)C(C)(C)[C@@H]5CC[C@@]34C)[C@@H]2[C@H]1C)C(O)=O`, the “AUC of viability dose-response curve” value with P12-Ichikawa (HPLM + 10% dialyzed FBS) worked out at 462; in the experiment on P12-Ichikawa (RPMI 5 mM glucose + 10% FBS) it was 469; in the experiment on P12-Ichikawa (setting [1]) it was 458; in the experiment with SEM cells (HPLM + 10% dialyzed FBS), 465; in the experiment on SEM cells (RPMI 5 mM glucose + 10% FBS), 467; with SEM cells (setting [1]), 456. For the same compound, the figures for the “AUC of viability dose-response curve” value with NOMO1 (HPLM + 10% dialyzed FBS), in the experiment with NOMO1 (RPMI 5 mM glucose + 10% FBS) and with NOMO1 (setting [1]) were 477, 461 and 468, respectively.
Consider `NC(=O)c1cnccn1`, for which the “AUC of viability dose-response curve” value in the experiment with P12-Ichikawa (HPLM + 10% dialyzed FBS) was found to be 463; in the experiment on P12-Ichikawa (RPMI 5 mM glucose + 10% FBS), 465; with P12-Ichikawa (setting [1]) it was 461; with SEM cells (HPLM + 10% dialyzed FBS), 462; in the experiment with SEM cells (RPMI 5 mM glucose + 10% FBS) it was 461; in the experiment with SEM cells (setting [1]), 465. Moreover, the results for the “AUC of viability dose-response curve” value with NOMO1 (HPLM + 10% dialyzed FBS), in the experiment with NOMO1 (RPMI 5 mM glucose + 10% FBS) and in the experiment on NOMO1 (setting [1]) were 464, 471 and 457, respectively.
Turning to `CCCN[C@H]1CCc2nc(N)sc2C1`, the “AUC of viability dose-response curve” value came to 462 with P12-Ichikawa (HPLM + 10% dialyzed FBS); 430 in the experiment on P12-Ichikawa (RPMI 5 mM glucose + 10% FBS); 450 in the experiment with P12-Ichikawa (setting [1]); 453 in the experiment with SEM cells (HPLM + 10% dialyzed FBS); 442 in the experiment on SEM cells (RPMI 5 mM glucose + 10% FBS); 442 with SEM cells (setting [1]). In addition, the “AUC of viability dose-response curve” value in the experiment on NOMO1 (HPLM + 10% dialyzed FBS) stood at 447; in the experiment on NOMO1 (RPMI 5 mM glucose + 10% FBS), 434; in the experiment on NOMO1 (setting [1]), 466.
